In brackets after ≈: the same amount, converted by molar mass. Where two headings read alike, the source gives them in different places.
Legend:
B. subtilis [1] = test: Antibacterial activity of crude compounds made by small scale synthesis; assay type: cell-based; details: crude reaction mixtures dissolved in DMSO, assayed directly
Protocol: 6-Anilinouracils were synthesized using small scale synthetic methods. One milligram quantities of 3-(3-methoxypropyl)-6-chlorouracil were heated with 42 substituted anilines in micro-test tubes at 130° C. for 20 minutes. The reaction mixtures were dissolved in DMSO and assayed directly for antibacterial activity.

B. subtilis DNA pol III = B. subtilis DNA pol III (Bacillus subtilis, UniProt P13267); test: Inhibition of B. subtilis DNA pol III (Ki); assay type: biochemical
Protocol: (§1) To further investigate the antibacterial and/or DNA pol III inhibitory activity of various drug compounds, various ester-containing moieties N-linked to the EMAU core were produced as described in Example 1. These prodrugs were assayed for inhibition of B. subtilis DNA pol III and antibiotic activity against a number of bacteria.
The competitive inhibitor constants (Ki) of selected EMAU compounds were determined with three different pol Ills: the pol III enzyme from Bacillus subtilis (BS pol III), and the pol III enzymes of the clinically relevant pathogens, Enterococcus fecalis (EF pol III) and Staphylococcus aureus (SA pol 111).

B. subtilis [2] = test: MIC against B. subtilis; assay type: cell-based; details: for MIC B. subtilis: Table 2; for MIC: Bacillus subtilis, Table 6, read-out: MIC B. subtilis
Protocol: as §1
(§2) The minimal inhibitory concentrations (MICs) of the four N3-substituted agents and EMAU were determined for B. subtilis (BS), methicillin-sensitive and resistant S. aureus (SA & MRSA), vancomycin-sensitive and resistant E. fecalis (EF& VREF), vancomycin-resistant E. fecium (VREF*), and E. coli (EC) as a Gram-negative control.

S. aureus = test: MIC against S. aureus (methicillin-sensitive); assay type: cell-based; details: for MIC S. aureus: Table 2; for MIC: Staphylococcus aureus, read-out: MIC S. aureas
Protocol: as §1, §2

MRSA = test: MIC against methicillin-resistant S. aureus strain MRSA / MRSA1; assay type: cell-based; details: Table 2
Protocol: as §1, §2

MRSA2 = test: MIC against methicillin-resistant S. aureus strain MRSA2; assay type: cell-based; details: Table 2
Protocol: as §1, §2

E. fecalis = test: MIC against E. fecalis; assay type: cell-based; details: for MIC E. fecalis: Table 2; for MIC: Table 6, read-out: MIC E. fecalis
Protocol: as §1, §2

E. fecium = test: MIC against E. fecium; assay type: cell-based; details: Table 2
Protocol: as §1

[3] = test system: vancomycin-resistant E. fecium; test: MIC against vancomycin-resistant E. fecium (VRE, VREF*); assay type: cell-based; details: Table 2, vancomycin-resistant E. fecium
Protocol: as §1, §2

E. coli = test: MIC against E. coli (Gram-negative control); assay type: cell-based; details: Table 2
Protocol: as §1, §2

[4] = Table 2, prodrugs having the EMAU core, read-out: Ki B. subtilis DNA Pol III
[5] = Table 6, read-out: Ki, inhibition constant vs. B. subtilis DNA pol III

Chain of B. subtilis DNA pol III (P13267 whole entry): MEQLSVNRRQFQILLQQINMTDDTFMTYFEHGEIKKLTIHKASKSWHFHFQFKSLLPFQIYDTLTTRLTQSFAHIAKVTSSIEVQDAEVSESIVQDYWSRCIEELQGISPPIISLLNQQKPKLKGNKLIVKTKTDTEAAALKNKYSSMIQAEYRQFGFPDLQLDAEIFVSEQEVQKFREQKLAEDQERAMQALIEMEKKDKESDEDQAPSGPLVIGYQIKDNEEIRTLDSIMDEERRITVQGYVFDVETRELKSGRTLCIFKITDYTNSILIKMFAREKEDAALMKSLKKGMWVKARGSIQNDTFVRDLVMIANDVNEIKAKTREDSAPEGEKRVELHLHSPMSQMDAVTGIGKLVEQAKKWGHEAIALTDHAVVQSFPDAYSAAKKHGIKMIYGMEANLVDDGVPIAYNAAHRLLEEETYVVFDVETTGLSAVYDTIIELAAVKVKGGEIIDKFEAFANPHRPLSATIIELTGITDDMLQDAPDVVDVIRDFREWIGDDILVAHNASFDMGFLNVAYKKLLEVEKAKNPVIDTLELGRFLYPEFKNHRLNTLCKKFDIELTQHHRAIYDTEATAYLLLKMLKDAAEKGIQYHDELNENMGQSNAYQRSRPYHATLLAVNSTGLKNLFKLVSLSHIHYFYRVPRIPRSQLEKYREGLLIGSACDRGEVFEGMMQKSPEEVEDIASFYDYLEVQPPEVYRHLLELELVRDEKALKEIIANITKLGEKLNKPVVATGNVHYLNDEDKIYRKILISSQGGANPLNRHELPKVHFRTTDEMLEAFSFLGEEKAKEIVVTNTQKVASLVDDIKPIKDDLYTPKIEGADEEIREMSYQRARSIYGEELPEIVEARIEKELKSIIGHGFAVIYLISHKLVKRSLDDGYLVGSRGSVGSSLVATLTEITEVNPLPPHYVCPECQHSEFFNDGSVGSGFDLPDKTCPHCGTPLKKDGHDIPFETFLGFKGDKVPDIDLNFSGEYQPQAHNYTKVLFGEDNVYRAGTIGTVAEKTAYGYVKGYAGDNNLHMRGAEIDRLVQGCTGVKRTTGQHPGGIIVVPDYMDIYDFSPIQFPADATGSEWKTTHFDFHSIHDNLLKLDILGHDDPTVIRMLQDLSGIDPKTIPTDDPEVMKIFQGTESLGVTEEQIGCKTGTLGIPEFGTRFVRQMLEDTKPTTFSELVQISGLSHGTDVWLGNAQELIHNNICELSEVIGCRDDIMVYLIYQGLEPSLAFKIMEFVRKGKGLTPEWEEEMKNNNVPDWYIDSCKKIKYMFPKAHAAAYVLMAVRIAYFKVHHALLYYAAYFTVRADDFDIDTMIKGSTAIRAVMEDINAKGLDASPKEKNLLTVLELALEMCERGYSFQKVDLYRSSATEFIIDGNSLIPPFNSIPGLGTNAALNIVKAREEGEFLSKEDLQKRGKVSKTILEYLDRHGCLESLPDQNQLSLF

COCCCn1c(=O)cc(Nc2cc(F)c(F)c(F)c2)[nH]c1=O [3,4,5-triF]
MIC B. subtilis (B. subtilis [1]): >100 µg/mL

COCCCn1c(=O)cc(Nc2ccc(Br)c(Br)c2)[nH]c1=O [3,4-diBr]
MIC B. subtilis (B. subtilis [1]): 3.13 µg/mL (≈ 7.23 µM)

COCCCn1c(=O)cc(Nc2ccc(Cl)c(Cl)c2)[nH]c1=O [3,4-diCl]
MIC B. subtilis (B. subtilis [1]): 6.25 µg/mL (≈ 18.2 µM)

COCCCn1c(=O)cc(Nc2ccc(F)c(F)c2)[nH]c1=O [3,4-diF]
MIC B. subtilis (B. subtilis [1]): >100 µg/mL

COCCCn1c(=O)cc(Nc2ccc(C)c(C)c2)[nH]c1=O [3,4-diMe]
MIC B. subtilis (B. subtilis [1]): 6.26 µg/mL (≈ 20.6 µM)

COCCCn1c(=O)cc(Nc2ccc(OC)c(OC)c2)[nH]c1=O [3,4-diOMe]
MIC B. subtilis (B. subtilis [1]): >100 µg/mL

COCCCn1c(=O)cc(Nc2cc(Cl)cc(Cl)c2)[nH]c1=O [3,5-diCl]
MIC B. subtilis (B. subtilis [1]): >100 µg/mL

COCCCn1c(=O)cc(Nc2cc(C)cc(C)c2)[nH]c1=O [3,5-diMe]
MIC B. subtilis (B. subtilis [1]): 50 µg/mL (≈ 165 µM)

COCCCn1c(=O)cc(Nc2cc(OC(F)(F)F)cc(OC(F)(F)F)c2)[nH]c1=O [3,5-diOCF3]
MIC B. subtilis (B. subtilis [1]): >100 µg/mL

COCCCn1c(=O)cc(Nc2cccc(C(C)O)c2)[nH]c1=O (centres unmarked) [3-CH(OH)CH3]
MIC B. subtilis (B. subtilis [1]): >100 µg/mL

CCc1cc(Nc2cc(=O)n(CCCCOC(=O)C3CCCN3C(=O)OC(C)(C)C)c(=O)[nH]2)ccc1C (centres unmarked) [(CH2)4-OCOCH(CH2)3NH-Boc]
Ki (B. subtilis DNA pol III; [4]): 3200 nM | MIC B. subtilis (B. subtilis [2]): <1.25 μ/ml | MIC S. aureus (S. aureus): 10 μ/ml | MIC MRSA (MRSA): 20 μ/ml | MIC MRSA2 (MRSA2): 10 μ/ml | MIC E. fecalis (E. fecalis): 10 μ/ml | MIC E. fecium (E. fecium): 10 μ/ml | MIC VRE [3]: 10 μ/ml | MIC E. coli (E. coli): >20 μ/ml

CCc1cc(Nc2cc(=O)n(CCCCOC(=O)C(N)CO)c(=O)[nH]2)ccc1C.Cl (centres unmarked) [(CH2)4-OCOCH(CH2OH)NH3^+Cl^−]
Ki (B. subtilis DNA pol III; [4]): 10 nM | MIC B. subtilis (B. subtilis [2]): 10 μ/ml | MIC S. aureus (S. aureus): >20 μ/ml | MIC MRSA (MRSA): >20 μ/ml | MIC MRSA2 (MRSA2): >20 μ/ml | MIC E. fecalis (E. fecalis): 20 μ/ml | MIC E. fecium (E. fecium): 20 μ/ml | MIC VRE [3]: 20 μ/ml | MIC E. coli (E. coli): >20 μ/ml

CCc1cc(Nc2cc(=O)n(CCCCOC(=O)C(CO)NC(=O)OC(C)(C)C)c(=O)[nH]2)ccc1C (centres unmarked) [(CH2)4-OCOCH(CH2OH)NH-Boc]
Ki (B. subtilis DNA pol III; [4]): 1500 nM | MIC B. subtilis (B. subtilis [2]): 5 μ/ml | MIC S. aureus (S. aureus): 20 μ/ml | MIC MRSA (MRSA): 20 μ/ml | MIC MRSA2 (MRSA2): 20 μ/ml | MIC E. fecalis (E. fecalis): 5 μ/ml | MIC E. fecium (E. fecium): 10 μ/ml | MIC VRE [3]: 5 μ/ml | MIC E. coli (E. coli): >20 μ/ml

CCc1cc(Nc2cc(=O)n(CCCCOC(=O)C(N)Cc3ccccc3)c(=O)[nH]2)ccc1C (centres unmarked) [(CH2)4-OCOCH(CH2Ph)NH3^+Cl^−]
Ki (B. subtilis DNA pol III; [4]): 6200 nM | MIC B. subtilis (B. subtilis [2]): >20 μ/ml | MIC S. aureus (S. aureus): >20 μ/ml | MIC MRSA (MRSA): >20 μ/ml | MIC MRSA2 (MRSA2): >20 μ/ml | MIC E. fecalis (E. fecalis): >20 μ/ml | MIC E. fecium (E. fecium): >20 μ/ml | MIC VRE [3]: >20 μ/ml | MIC E. coli (E. coli): >20 μ/ml

CCc1cc(Nc2cc(=O)n(CCCCOC(=O)C(NC(=O)OC(C)(C)C)C(C)C)c(=O)[nH]2)ccc1C (centres unmarked) [(CH2)4-OCOCH(iPr)NH-Boc]
Ki (B. subtilis DNA pol III; [4]): 4900 nM | MIC B. subtilis (B. subtilis [2]): 2.5 μ/ml | MIC S. aureus (S. aureus): >20 μ/ml | MIC MRSA (MRSA): >20 μ/ml | MIC MRSA2 (MRSA2): >20 μ/ml | MIC E. fecalis (E. fecalis): >20 μ/ml | MIC E. fecium (E. fecium): >20 μ/ml | MIC VRE [3]: >20 μ/ml | MIC E. coli (E. coli): >20 μ/ml

COCCCn1c(=O)cc(Nc2ccc(C)c(I)c2)[nH]c1=O [Compound 3-1-4-Me]
MIC B. subtilis (B. subtilis [1]): 1.57 µg/mL (≈ 3.78 µM)

COCCCn1c(=O)cc(Nc2cccc(Br)c2)[nH]c1=O [Compound 3-Br]
MIC B. subtilis (B. subtilis [1]): >100 µg/mL

COCCCn1c(=O)cc(Nc2ccc(Br)c(C(F)(F)F)c2)[nH]c1=O [Compound 3-CF3-4-Br]
MIC B. subtilis (B. subtilis [1]): >100 µg/mL

COCCCn1c(=O)cc(Nc2ccc(Cl)c(C(F)(F)F)c2)[nH]c1=O [Compound 3-CF3-4-Cl]
MIC B. subtilis (B. subtilis [1]): >100 µg/mL

COCCCn1c(=O)cc(Nc2ccc(C)c(CO)c2)[nH]c1=O [Compound 3-CH2OH-4-Me]
MIC B. subtilis (B. subtilis [1]): >100 µg/mL

COCCCn1c(=O)cc(Nc2cccc(CO)c2)[nH]c1=O [Compound 3-CH2OH]
MIC B. subtilis (B. subtilis [1]): >100 µg/mL

COCCCn1c(=O)cc(Nc2cccc(C#N)c2)[nH]c1=O [Compound 3-CN]
MIC B. subtilis (B. subtilis [1]): >100 µg/mL

COCCCn1c(=O)cc(Nc2ccc(F)c(Cl)c2)[nH]c1=O [Compound 3-Cl-4-F]
MIC B. subtilis (B. subtilis [1]): 50 µg/mL (≈ 153 µM)

COCCCn1c(=O)cc(Nc2ccc(C)c(Cl)c2)[nH]c1=O [Compound 3-Cl-4-Me]
MIC B. subtilis (B. subtilis [1]): 3.13 µg/mL (≈ 9.67 µM)

COCCCn1c(=O)cc(Nc2ccc(OC)c(Cl)c2)[nH]c1=O [Compound 3-Cl-4-OMe]
MIC B. subtilis (B. subtilis [1]): 50 µg/mL (≈ 147 µM)

COCCCn1c(=O)cc(Nc2cccc(Cl)c2)[nH]c1=O [Compound 3-Cl]
MIC B. subtilis (B. subtilis [1]): >100 µg/mL

COCCCn1c(=O)cc(Nc2cccc(F)c2)[nH]c1=O [Compound 3-F]
MIC B. subtilis (B. subtilis [1]): >100 µg/mL

COCCCn1c(=O)cc(Nc2cccc(I)c2)[nH]c1=O [Compound 3-I]
MIC B. subtilis (B. subtilis [1]): 25 µg/mL (≈ 62.3 µM)

COCCCn1c(=O)cc(Nc2cccc(C)c2)[nH]c1=O [Compound 3-Me]
MIC B. subtilis (B. subtilis [1]): 100 µg/mL (≈ 346 µM)

COCCCn1c(=O)cc(Nc2cccc([N+](=O)[O-])c2)[nH]c1=O [Compound 3-NO2]
MIC B. subtilis (B. subtilis [1]): >100 µg/mL

COCCCn1c(=O)cc(Nc2cccc(OC)c2)[nH]c1=O [Compound 3-OMe]
MIC B. subtilis (B. subtilis [1]): >100 µg/mL

COCCCn1c(=O)cc(Nc2ccc(C#N)cc2)[nH]c1=O [Compound 4-CN]
MIC B. subtilis (B. subtilis [1]): >100 µg/mL

COCCCn1c(=O)cc(Nc2ccc(Cl)cc2)[nH]c1=O [Compound 4-Cl]
MIC B. subtilis (B. subtilis [1]): 100 µg/mL (≈ 323 µM)

CCc1ccc(Nc2cc(=O)n(CCCOC)c(=O)[nH]2)cc1 [Compound 4-Et]
MIC B. subtilis (B. subtilis [1]): 50 µg/mL (≈ 165 µM)

COCCCn1c(=O)cc(Nc2ccc(F)cc2)[nH]c1=O [Compound 4-F]
MIC B. subtilis (B. subtilis [1]): >100 µg/mL

COCCCn1c(=O)cc(Nc2ccc(I)cc2)[nH]c1=O [Compound 4-I]
MIC B. subtilis (B. subtilis [1]): 100 µg/mL (≈ 249 µM)

COCCCn1c(=O)cc(Nc2ccc(C)cc2)[nH]c1=O [Compound 4-Me]
MIC B. subtilis (B. subtilis [1]): 50 µg/mL (≈ 173 µM)

COCCCn1c(=O)cc(Nc2ccc(O)cc2)[nH]c1=O [Compound 4-OH]
MIC B. subtilis (B. subtilis [1]): >100 µg/mL

CCCc1ccc(Nc2cc(=O)n(CCCOC)c(=O)[nH]2)cc1 [Compound 4-Pr]
MIC B. subtilis (B. subtilis [1]): >100 µg/mL

COCCCn1c(=O)cc(Nc2ccc(CC(C)C)cc2)[nH]c1=O [Compound 4-iBU]
MIC B. subtilis (B. subtilis [1]): >100 µg/mL

COCCCn1c(=O)cc(Nc2ccc(C(C)C)cc2)[nH]c1=O [Compound 4-iPR]
MIC B. subtilis (B. subtilis [1]): >100 µg/mL

CCc1cc(Nc2cc(=O)n(CCCCI)c(=O)[nH]2)ccc1C [IB-EMAU, 3-(4-iodobutyl)-6-(3-ethyl-4-methylanilino)uracil]
Ki (B. subtilis DNA pol III; [5]): 360 nM | MIC (B. subtilis [2]): < 3.1 µg/mL | MIC (S. aureus): 12 µg/mL (≈ 28.1 µM) | MIC (E. fecalis): 6 µg/mL (≈ 14 µM)

Cc1ccc(Nc2cc(=O)n(CCCCI)c(=O)[nH]2)cc1I [IB-IMAU]
Ki (B. subtilis DNA pol III; [5]): 660 nM | MIC (B. subtilis [2]): < 3.1 µg/mL | MIC (S. aureus): 6 µg/mL (≈ 11.4 µM) | MIC (E. fecalis): 6 µg/mL (≈ 11.4 µM)

CCc1cc(Nc2cc(=O)n(CCCCOC)c(=O)[nH]2)ccc1C [MB-EMAU]
Ki (B. subtilis DNA pol III; [5]): 430 nM | MIC (B. subtilis [2]): < 3.1 µg/mL | MIC (S. aureus): 6 µg/mL (≈ 18.1 µM) | MIC (E. fecalis): 6 µg/mL (≈ 18.1 µM)

COCCCCn1c(=O)cc(Nc2ccc(C)c(I)c2)[nH]c1=O [ME-IMAU]
Ki (B. subtilis DNA pol III; [5]): 540 nM | MIC (B. subtilis [2]): < 3.1 µg/mL | MIC (S. aureus): 6 µg/mL (≈ 14 µM) | MIC (E. fecalis): 3 µg/mL (≈ 6.99 µM)

COCCCn1c(=O)cc(Nc2ccccc2)[nH]c1=O [—]
MIC B. subtilis (B. subtilis [1]): >100 µg/mL

Source: patent publication US6448256B1, “Antibiotic prodrugs” (University of Massachusetts, priority 1999, dated 2002)
